Consider 5 compounds from article PMC6759494 (Tetrahedron, 2019).

For the assay, the target named is peptide deformylase (EcPDF) (Escherichia coli, UniProt P0A6K3). The experiment in a line: coupled colorimetric assay. It is filed as biochemical.
Chain of peptide deformylase (EcPDF) (P0A6K3 2-169): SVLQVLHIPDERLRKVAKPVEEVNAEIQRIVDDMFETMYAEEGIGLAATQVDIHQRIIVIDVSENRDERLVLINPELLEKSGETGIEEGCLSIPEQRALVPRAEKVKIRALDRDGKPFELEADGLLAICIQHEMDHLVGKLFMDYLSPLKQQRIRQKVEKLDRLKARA

Turning to `C/C=C/c1c(O)c(O)cc2c1[C@@](C)(NC(=O)/C=C/C(=O)O)C(=O)O2` (racemic) [compound 1, (±)-fumimycin], the “% inhibition at 4 μM” value was ~ 20. Take `CCCCC[C@H](CC(=O)NO)C(=O)N[C@H](C(=O)N1CCC[C@H]1CO)C(C)C` [compound 2, actinonin]: for the setting “read-out: % inhibition at 4 μM”, the inhibition at 4 µM was about 95%.

For the compound “Dimethoxy-fumimycin hydroxamic acid [17f]”, the “% inhibition at 4 μM” value is reported as ~ 20. The same measure, in the same setting: the figure for Dimethoxy-fumimycin methyl ester [17b] is ~ 20; for Fumimycin Weinreb amide [17h] it is ~ 16.
